What was measured:
Assay type in all cases: biochemical
recombinant human PKA = target: T1, recombinant human PKA (Homo sapiens, UniProt P17612); experiment: Determination of Protein Kinase A inhibition (Caliper peptide phosphorylation assay); conditions: recombinant human PKA versus ROCK II
T1 construct: Active recombinant human PKA (residues 1-351, N-terminal His-tag); His-tag (N); purchased Invitrogen, Karlsruhe, Germany
Procedure, shortened: (§1)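 Full-length His-tagged PKG1-beta (150 ng/ml working) or His-tagged PKA residues 1-351 (30 ng/ml working) was mixed with compound in pH 7.4 Tris/MgCl2/DTT buffer. Fluorescein-peptide substrate and ATP (3 μM and 120 μM working) were then added for 60 min at 32 °C before an EDTA stop. Phosphopeptide was separated electrophoretically on a Caliper instrument to derive IC50.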

[1] = target: T2, human recombinant ROCK II (Homo sapiens, UniProt O75116); experiment: Determination of Rho kinase inhibition (Caliper peptide phosphorylation assay); conditions: 60 min at 32° C., negative decadal logarithm of the IC50
T2 construct: N-terminal His6-tagged recombinant human ROCK-II residues 11-552; His6 (N); purchased Millipore GmbH, Schwalbach, Germany
T2 sequence (O75116 11-552): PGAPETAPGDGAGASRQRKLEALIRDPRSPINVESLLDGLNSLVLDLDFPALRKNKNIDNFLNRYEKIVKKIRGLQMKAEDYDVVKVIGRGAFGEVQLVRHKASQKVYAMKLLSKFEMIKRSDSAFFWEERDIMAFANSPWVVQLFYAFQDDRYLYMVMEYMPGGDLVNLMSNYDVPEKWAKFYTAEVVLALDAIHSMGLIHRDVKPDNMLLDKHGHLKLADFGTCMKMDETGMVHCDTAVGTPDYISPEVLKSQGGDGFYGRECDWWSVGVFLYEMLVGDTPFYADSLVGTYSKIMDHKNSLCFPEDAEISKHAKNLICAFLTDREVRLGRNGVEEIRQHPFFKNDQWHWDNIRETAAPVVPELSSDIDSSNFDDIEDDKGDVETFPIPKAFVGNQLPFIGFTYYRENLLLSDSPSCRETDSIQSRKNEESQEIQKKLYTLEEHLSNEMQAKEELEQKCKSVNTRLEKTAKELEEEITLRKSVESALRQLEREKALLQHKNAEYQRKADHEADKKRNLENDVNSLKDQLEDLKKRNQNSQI
Procedure, shortened: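 His6-tagged human ROCK II (residues 11-552) phosphorylated a fluorescein-labelled peptide for 60 min at 32° C in Tris-HCl pH 7.4 with MgCl2, DTT and BSA, using 3 μM peptide and 120 μM ATP as diluted stocks. EDTA-stopped; phosphopeptide separated and detected by Caliper mobility shift; IC50 determined.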

[2] = target: T3, recombinant human PKG1-beta (Homo sapiens, UniProt Q13976); experiment: Determination of Protein Kinase G inhibition (Caliper peptide phosphorylation assay); conditions: recombinant human PKG1-beta versus ROCK II
T3 construct: Active recombinant human PKG1-beta (full-length, with N-terminal His-tag); His-tag (N); purchased Millipore GmbH, Schwalbach, Germany
T3 sequence (Q13976 1-686 isoform Q13976-2): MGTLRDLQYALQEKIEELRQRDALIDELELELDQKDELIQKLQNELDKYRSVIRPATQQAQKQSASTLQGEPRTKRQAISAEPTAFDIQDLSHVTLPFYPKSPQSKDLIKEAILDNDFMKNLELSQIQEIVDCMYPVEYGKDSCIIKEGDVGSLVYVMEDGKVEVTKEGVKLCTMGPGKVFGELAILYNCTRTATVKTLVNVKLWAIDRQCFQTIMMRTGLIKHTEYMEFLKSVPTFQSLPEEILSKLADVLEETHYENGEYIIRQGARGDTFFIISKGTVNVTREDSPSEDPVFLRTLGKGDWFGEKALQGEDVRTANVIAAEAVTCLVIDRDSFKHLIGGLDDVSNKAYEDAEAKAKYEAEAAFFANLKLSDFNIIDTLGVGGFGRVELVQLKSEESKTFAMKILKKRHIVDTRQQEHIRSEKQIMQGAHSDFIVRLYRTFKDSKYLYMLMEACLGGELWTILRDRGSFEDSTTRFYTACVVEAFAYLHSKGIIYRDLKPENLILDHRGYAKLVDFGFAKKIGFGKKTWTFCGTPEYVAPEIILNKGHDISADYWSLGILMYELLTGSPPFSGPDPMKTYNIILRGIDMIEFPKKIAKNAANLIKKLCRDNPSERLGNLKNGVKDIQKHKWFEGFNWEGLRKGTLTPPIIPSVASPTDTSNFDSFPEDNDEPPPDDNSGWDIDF
Procedure, shortened: as §1

Selectivity against PKA (recombinant human PKA) | IC50 [1] [nM] | Selectivity against PKG [2] | pIC50 [1] | SMILES
>100 | 10 to 100 | >10 | – | CCC(N)C1CCC(Oc2cc3cc[nH]c(=O)c3cc2Cl)CC1 (single isomer, unassigned) [Example 129, 6-[4-(1-Amino-propyl)-cyclohexyoxy]-7-chloro-2H-isoquinolin-1-one]
>1000 | – | >100 | +++++++ (8.0≦pIC50) | CCC(N)[C@]1(c2ccccc2C)CC[C@H](Oc2cc3cc[nH]c(=O)c3cc2Cl)CC1 (stereo partly drawn) [Example 60, cis-6-[4-(1-Amino-propyl)-4-o-tolyl-cyclohexyloxy]-7-chloro-2H-isoquinolin-1-one]
>1000 | – | >1000 | +++++++ (8.0≦pIC50) | CCC(N)[C@@]1(c2ccccc2)C[C@@H]2C[C@H]1CC2Oc1cc2cc[nH]c(=O)c2cc1Cl (stereo partly drawn) [Example 100, 6-[(1S,4S,5S)-5-(1-Amino-propyl)-5-phenyl-bicyclo[2.2.1]hept-2-yloxy]-7-chloro-2H-isoquinolin-1-one]
>10 | – | >1 | +++++ (6.0≦pIC50<7.0) | CCC(N)[C@]1(c2ccccc2OC(F)(F)F)CC[C@H](Oc2cc3cc[nH]c(=O)c3cc2Cl)CC1 (stereo partly drawn) [Example 61, cis-6-[4-(1-Amino-propyl)-4-(2-trifluoromethoxy-phenyl)-cyclohexyloxy]-7-chloro-2H-iso quinolin-1-one]
>100 | – | >10 | +++++ (6.0≦pIC50<7.0) | CCC(N)[C@]1(c2cccc(C(F)(F)F)c2)CC[C@H](Oc2cc3cc[nH]c(=O)c3cc2Cl)CC1 (stereo partly drawn) [Example 83, cis-6-[4-(1-Amino-propyl)-4-(3-trifluoromethyl-phenyl)-cyclohexyloxy]-7-chloro-2H-isoquinolin-1-one]
>10 | – | >10 | +++++ (6.0≦pIC50<7.0) | CCC(N)[C@]1(c2cccc(C(F)(F)F)c2)CC[C@H](Oc2cc3cc[nH]c(=O)c3cc2C)CC1 (stereo partly drawn) [Example 86, cis-6-[4-(1-Amino-propyl)-4-(3-trifluoromethyl-phenyl)-cyclohexyloxy]-7-methyl-2H-iso quinolin-1-one]
>10 | – | >10 | +++++ (6.0≦pIC50<7.0) | NC(c1ccccc1)C1CCC(Oc2cc3cc[nH]c(=O)c3cc2Cl)CC1 (stereo not drawn) [Example 128, 6-[4-(amino-phenyl-methyl)-cyclohexyloxy]-7-chloro-2H-isoquinolin-1-one]
>1000 | – | >1000 | +++++++ (8.0≦pIC50) | NC(C1CC1)[C@]1(c2ccc(F)cc2)CC[C@H](Oc2cc3cc[nH]c(=O)c3cc2Cl)CC1 (stereo partly drawn) [Example 82, cis-6-[4-(Amino-cyclopropyl-methyl)-4-(4-fluoro-phenyl)-cyclohexyloxy]-7-chloro-2H-isoquinolin-1-one]
>1000 | – | >300 | +++++++ (8.0≦pIC50) | CCC(N)[C@]1(c2ccccc2Br)CC[C@H](Oc2cc3cc[nH]c(=O)c3cc2Cl)CC1 (stereo partly drawn) [Example 7, cis-6-[4-(1-Amino-propyl)-4-(2-bromo-phenyl)-cyclohexyloxy]-7-chloro-2H-isoquinolin-1-one]
>1000 | – | >100 | +++++++ (8.0≦pIC50) | CCCC(N)[C@]1(c2ccccc2)CC[C@H](Oc2cc3cc[nH]c(=O)c3cc2Cl)CC1 (stereo partly drawn) [Example 4, cis-6-[4-(1-Amino-butyl)-4-phenyl-cyclohexyloxy]-7-chloro-2H-isoquinolin-1-one]
>100 | 100 to 1000 | >10 | – | CC(N)(C1CCC(Oc2cc3cc[nH]c(=O)c3cc2Cl)CC1)C1CC1 (single isomer, unassigned) [Example 120, 6-{4-[1-Amino-1-cyclopropyl-ethyl]-cyclohexyloxy}-7-chloro-2H-isoquinolin-1-one]
>300 | – | >10 | ++++++ (7.0≦pIC50<8.0) | CCC(N)[C@]1(c2ccccc2)CC[C@H](Oc2cc3cc[nH]c(=O)c3cc2C)CC1 (stereo partly drawn) [Example 11, cis-6-[4-(1-Amino-propyl)-4-phenyl-cyclohexyloxy]-7-methyl-2H-iso quinolin-1-one]
>10 | – | >10 | +++++ (6.0≦pIC50<7.0) | CCC(N)C1(c2ccc(F)cc2)CC(Oc2cc3cc[nH]c(=O)c3cc2Cl)C1 (stereo not drawn) [Example 125, 6-[3-(1-Amino-propyl)-3-(4-fluoro-phenyl)-cyclobutyloxy]-7-chloro-2H-isoquinolin-1-one]
>300 | 10 to 100 | >10 | – | CCC(N)(CC)C1CCC(Oc2cc3cc[nH]c(=O)c3cc2Cl)CC1 (single isomer, unassigned) [Example 122, 6-{-4-[1-Amino-1-ethyl-propyl]-cyclohexyloxy}-7-chloro-2H-isoquinolin-1-one]
>1000 | – | >300 | +++++++ (8.0≦pIC50) | CCC(N)[C@]1(c2ccc(C(F)(F)F)cc2)CC[C@H](Oc2cc3cc[nH]c(=O)c3cc2Cl)CC1 (stereo partly drawn) [Example 8, cis-6-[4-(1-Amino-propyl)-4-(4-trifluoromethyl-phenyl)-cyclo-hexyloxy]-7-chloro-2H-isoquinolin-1-one]

SMILES | Selectivity against PKA (recombinant human PKA) | IC50 [1] [nM] | Selectivity against PKG [2] | pIC50 [1]
CCC(N)[C@]1(c2cccc(OC)c2)CC[C@@H](Oc2cc3cc[nH]c(=O)c3cc2Cl)CC1 (stereo partly drawn) [Example 17, trans-6-[4-(1-Amino-propyl)-4-(3-methoxy-phenyl)-cyclohexyloxy]-7-chloro-2H-iso quinolin-1-one] | >300 | – | >100 | ++++++ (7.0≦pIC50<8.0)
CCC(N)[C@]1(c2cccc(OC)c2)CC[C@H](Oc2cc3cc[nH]c(=O)c3cc2Cl)CC1 (stereo partly drawn) [Example 28] | >1000 | – | >1000 | +++++++ (8.0≦pIC50)
CCC(N)[C@]1(c2ccc(C(C)C)cc2)CC[C@H](Oc2cc3cc[nH]c(=O)c3cc2Cl)CC1 (stereo partly drawn) [Example 27, cis-6-[4-(1-Amino-propyl)-4-(4-isopropyl-phenyl)-cyclohexyloxy]-7-chloro-2H-iso quinolin-1-one] | >100 | – | >10 | ++++++ (7.0≦pIC50<8.0)
CCC(N)[C@]1(c2cccc(Br)c2)CC[C@@H](Oc2cc3cc[nH]c(=O)c3cc2Cl)CC1 (stereo partly drawn) [Example 16, trans-6-[4-(1-Amino-propyl)-4-(3-bromo-phenyl)-cyclohexyloxy]-7-chloro-2H-iso quinolin-1-one] | >300 | – | >100 | ++++++ (7.0≦pIC50<8.0)
CCC(N)[C@]1(c2ccccc2)CC[C@H](Oc2cc3cc[nH]c(=O)c3cc2Cl)CC1 (stereo partly drawn) [Example 3, cis-6-{[4-(1-aminopropyl)-4-phenylcyclohexyl]oxy}-7-chloro-2H-isoquinolin-1-one] | >1000 | – | >300 | +++++++ (8.0≦pIC50)
NC1([C@]2(c3ccccc3)CC[C@H](Oc3cc4cc[nH]c(=O)c4cc3Cl)CC2)CC1 [Example 2, cis-6-[4-(1-Amino-cyclopropyl)-4-phenyl-cyclohexyloxy]-7-chloro-2H-isoquinolin-1-one] | >1000 | – | >1000 | +++++++ (8.0≦pIC50)
COc1ccc(C(N)[C@H]2CC[C@@H](Oc3cc4cc[nH]c(=O)c4cc3Cl)CC2)cc1 (single isomer, unassigned) [Example 35, 6-{4-[Amino-(4-methoxy-phenyl)-methyl]-cyclohexyloxy}-7-chloro-2H-isoquinolin-1-one] | >1000 | ≤ 10 | >100 | –
CCC(N)[C@]1(c2cc(F)cc(F)c2)CC[C@H](Oc2cc3cc[nH]c(=O)c3cc2Cl)CC1 (stereo partly drawn) [Example 58, cis-6-[4-(1-Amino-propyl)-4-(3,5-difluoro-phenyl)-cyclohexyloxy]-7-chloro-2H-isoquinolin-1-one] | >1000 | – | >100 | +++++++ (8.0≦pIC50)
